Test results reported in PubChem BioAssay AID330 (DTP/NCI, 2004).
“And” between values parts separate entries of the source, which are not always exact repeats. Equal entries are not always repeated. Toxic doses and inconclusive results are not listed.

System: P388 leukemia ip, CD2F1 mice, survival T/C
Test: NCI In Vivo Anticancer Drug Screen. Data for tumor model P388 Leukemia (intraperitoneal) in CD2F1 (CDF1) mice
Details: endpoint: median survival time, higher = longer survival
How it was run: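 Mice carrying the transplanted tumor received test compound or vehicle. Survival was recorded in each group, and the value is the treated-group measurement divided by that of the vehicle-treated control group.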

[1] = dose: 50.0 mg/kg/injection, schedule: Q01DX009 (ip), vehicle: saline
[2] = dose: 100.0 mg/kg/injection, schedule: Q01DX009 (ip), vehicle: saline
[3] = dose: 200.0 mg/kg/injection, schedule: Q01DX009 (ip), vehicle: saline
[4] = dose: 50.0 mg/kg/injection, schedule: Q01DX005 (ip), vehicle: saline with Tween-80
[5] = dose: 100.0 mg/kg/injection, schedule: Q01DX005 (ip), vehicle: saline with Tween-80
[6] = dose: 200.0 mg/kg/injection, schedule: Q01DX005 (ip), vehicle: saline with Tween-80
[7] = dose: 50.0 mg/kg/injection, schedule: Q01DX009 (ip), vehicle: saline with Tween-80
[8] = dose: 50.0 mg/kg/injection, schedule: Q04DX003 (ip), vehicle: saline with Tween-80
[9] = dose: 60.0 mg/kg/injection, schedule: Q01DX005 (ip), vehicle: saline with Tween-80
[10] = dose: 120.0 mg/kg/injection, schedule: Q01DX005 (ip), vehicle: saline with Tween-80
[11] = dose: 100.0 mg/kg/injection, schedule: Q01DX009 (ip), vehicle: saline with Tween-80
[12] = dose: 200.0 mg/kg/injection, schedule: Q01DX009 (ip), vehicle: saline with Tween-80
[13] = dose: 50.0 mg/kg/injection, schedule: Q01DX009 (ip), vehicle: Klucel (hydroxypropylcellulose) (HPC)
[14] = dose: 100.0 mg/kg/injection, schedule: Q04DX002 (ip), vehicle: Klucel (hydroxypropylcellulose) (HPC)

`OCCOCCN1CCN(CCCN2c3ccccc3Sc3ccc(C(F)(F)F)cc32)CC1` was tested, and the T/C (dose: 12.5 mg/kg/injection, schedule: Q04DX003 (ip), vehicle: saline) was 114 % of control and the T/C (dose: 25.0 mg/kg/injection, schedule: Q04DX003 (ip), vehicle: saline) was 117 % of control.

In the case of `ClCC[N+]12CC[N+](CCCl)(CC1)C2` (tested in a mixture with another compound), the T/C (dose: 12.5 mg/kg/injection, schedule: Q01DX009 (ip), vehicle: water) is reported as 105 % of control and 118 % of control, the T/C (dose: 25.0 mg/kg/injection, schedule: Q01DX005 (ip), vehicle: saline) is reported as 116 % of control and the T/C (dose: 25.0 mg/kg/injection, schedule: Q01DX009 (ip), vehicle: water) is reported as 119 % of control. For the same compound, the T/C [1] was 159 % of control and 171 % of control, the T/C (dose: 50.0 mg/kg/injection, schedule: Q01DX009 (ip), vehicle: water) was 150 % of control and the T/C (dose: 100.0 mg/kg/injection, schedule: Q01DX005 (ip), vehicle: saline) was 162 % of control and 168 % of control. The T/C [2] was 197 % of control and 198 % of control, the T/C (dose: 100.0 mg/kg/injection, schedule: Q01DX009 (ip), vehicle: water) was 160 % of control and 196 % of control and the T/C (dose: 200.0 mg/kg/injection, schedule: Q01DX005 (ip), vehicle: saline) was 161 % of control and 212 % of control. For the same compound, the T/C [3] was 240 % of control and 263 % of control, the T/C (dose: 200.0 mg/kg/injection, schedule: Q01DX009 (ip), vehicle: water) was 188 % of control and the T/C (dose: 400.0 mg/kg/injection, schedule: Q01DX009 (ip), vehicle: saline) was 281 % of control and 296 % of control.

For `CCCCC(CC)CN=Cc1c(O)c(O)c(C(C)C)c2cc(C)c(-c3c(C)cc4c(C(C)C)c(O)c(O)c(C=NCC(CC)CCCC)c4c3O)c(O)c12` (configuration not stated), the T/C [4] was 93 % of control, the T/C [5] was 88 % of control and the T/C [6] was 86 % of control.

For `O=Cc1cccc(CC(O)(C(F)(F)F)C(F)(F)F)n1`, the T/C (dose: 12.5 mg/kg/injection, schedule: Q01DX009 (ip), vehicle: saline with Tween-80) was 95 % of control, the T/C (dose: 12.5 mg/kg/injection, schedule: Q04DX003 (ip), vehicle: saline with Tween-80) was 100 % of control and the T/C (dose: 25.0 mg/kg/injection, schedule: Q01DX009 (ip), vehicle: saline with Tween-80) was 100 % of control. The T/C (dose: 25.0 mg/kg/injection, schedule: Q04DX003 (ip), vehicle: saline with Tween-80) was 100 % of control, the T/C [7] was 100 % of control and the T/C [8] was 95 % of control.

In the case of `C[N+](C)(C)[N-]C(=N)c1ccccc1`, the T/C (dose: 25.0 mg/kg/injection, schedule: Q01DX001 (ip), vehicle: suspension in saline) is reported as 102 % of control, the T/C (dose: 50.0 mg/kg/injection, schedule: Q01DX001 (ip), vehicle: suspension in saline) is reported as 104 % of control and the T/C (dose: 100.0 mg/kg/injection, schedule: Q01DX001 (ip), vehicle: suspension in saline) is reported as 99 % of control and 110 % of control.

With `COc1cc2c3c(c1OC)C=C[C@@H]1CCCN(CC2)[C@H]31` the T/C (dose: 7.5 mg/kg/injection, schedule: Q01DX005 (ip), vehicle: Klucel (hydroxypropylcellulose) (HPC)) was 100 % of control, the T/C (dose: 15.0 mg/kg/injection, schedule: Q01DX005 (ip), vehicle: Klucel (hydroxypropylcellulose) (HPC)) was 98 % of control and the T/C (dose: 30.0 mg/kg/injection, schedule: Q01DX005 (ip), vehicle: Klucel (hydroxypropylcellulose) (HPC)) was 101 % of control.

`CCN(CC)CCOC(=O)Nc1cc(C)cc(C)c1` was tested, and the T/C [9] was 94 % of control and the T/C [10] was 91 % of control.

For `S=c1s[nH]c2c1CCC2`, the T/C [7] was 98 % of control, the T/C [1] was 105 % of control and the T/C [11] was 101 % of control. The T/C [2] was 110 % of control, the T/C [12] was 105 % of control and the T/C [3] was 120 % of control. The T/C (dose: 400.0 mg/kg/injection, schedule: Q01DX009 (ip), vehicle: saline with Tween-80) was 95 % of control.

With `CC1C(c2ccccc2)OC2N1CN(C(C)(C)C)CC2(C)C` (configuration not stated) the T/C [7] was 100 % of control, the T/C [11] was 104 % of control and the T/C [12] was 105 % of control.

For `COc1ccc(C(OC(C)(C)C)c2cc(C(C)(C)C)cc(C(C)(C)C)c2O)cc1` (configuration not stated), the T/C (dose: 50.0 mg/kg/injection, schedule: Q01DX005 (ip), vehicle: distilled water + alcohol) was 101 % of control, the T/C (dose: 100.0 mg/kg/injection, schedule: Q01DX005 (ip), vehicle: distilled water + alcohol) was 104 % of control and the T/C (dose: 200.0 mg/kg/injection, schedule: Q01DX005 (ip), vehicle: distilled water + alcohol) was 97 % of control.

With `N#CCCn1nc(SCc2ccccc2)c(=O)[nH]c1=O` the T/C [4] was 95 % of control, the T/C [5] was 94 % of control and the T/C [6] was 92 % of control.

`CCOC(=O)C(C)Oc1ccc(Cn2ccnn2)cc1` (configuration not stated) was tested, and the T/C [9] was 98 % of control, the T/C [10] was 98 % of control and the T/C (dose: 240.0 mg/kg/injection, schedule: Q01DX005 (ip), vehicle: saline with Tween-80) was 96 % of control.

In the case of `CC1CCC2(NC1)OC1CC3C4CCC5CC(N)CCC5(C)C4CCC3(C)C1C2C` (configuration not stated), the T/C (dose: 6.25 mg/kg/injection, schedule: Q01DX009 (ip), vehicle: Klucel (hydroxypropylcellulose) (HPC)) is reported as 105 % of control, the T/C (dose: 12.5 mg/kg/injection, schedule: Q01DX009 (ip), vehicle: Klucel (hydroxypropylcellulose) (HPC)) is reported as 95 % of control and the T/C (dose: 25.0 mg/kg/injection, schedule: Q01DX009 (ip), vehicle: Klucel (hydroxypropylcellulose) (HPC)) is reported as 106 % of control. For the same compound, the T/C [13] was 110 % of control.

`BrC1CCC(OCc2ccccc2)C(OCc2ccccc2)C1` (configuration not stated) was tested, and the T/C [13] was 100 % of control, the T/C (dose: 100.0 mg/kg/injection, schedule: Q01DX009 (ip), vehicle: Klucel (hydroxypropylcellulose) (HPC)) was 98 % of control and the T/C (dose: 200.0 mg/kg/injection, schedule: Q01DX009 (ip), vehicle: Klucel (hydroxypropylcellulose) (HPC)) was 97 % of control.

For `COc1cc2c(cc1OC)C13CCN4C(=O)C(=O)C(CC41)C1C(OCC(=O)O)CC(=O)N2C13` (configuration not stated), the T/C (dose: 60.0 mg/kg/injection, schedule: Q01DX005 (ip), vehicle: saline) was 101 % of control, the T/C (dose: 120.0 mg/kg/injection, schedule: Q01DX005 (ip), vehicle: saline) was 101 % of control and the T/C (dose: 240.0 mg/kg/injection, schedule: Q01DX005 (ip), vehicle: saline) was 100 % of control.

`O=NN1CC23C=CCCC2(CCCC3)C1` (configuration not stated) was tested, and the T/C (dose: 100.0 mg/kg/injection, schedule: Q04DX003 (ip), vehicle: Klucel (hydroxypropylcellulose) (HPC)) was 113 % of control, the T/C (dose: 200.0 mg/kg/injection, schedule: Q04DX003 (ip), vehicle: Klucel (hydroxypropylcellulose) (HPC)) was 114 % of control and the T/C (dose: 400.0 mg/kg/injection, schedule: Q04DX003 (ip), vehicle: Klucel (hydroxypropylcellulose) (HPC)) was 104 % of control.

For `CC(C)(C)N=C(CCN1CCOCC1)Nc1cccc(Cl)c1`, the T/C [7] was 100 % of control, the T/C [11] was 96 % of control and the T/C [12] was 97 % of control.

`OC(ON=C1CCCCC1)c1ccc2c(c1)OCO2` (configuration not stated) was tested, and the T/C [4] was 96 % of control, the T/C [5] was 103 % of control and the T/C [6] was 107 % of control.

For `CC1CC(O)C(O)(c2ccccc2)CC1C` (configuration not stated), the T/C (dose: 100.0 mg/kg/injection, schedule: Q01DX001 (ip), vehicle: Klucel (hydroxypropylcellulose) (HPC)) was 104 % of control, the T/C (dose: 200.0 mg/kg/injection, schedule: Q01DX001 (ip), vehicle: Klucel (hydroxypropylcellulose) (HPC)) was 101 % of control and the T/C (dose: 400.0 mg/kg/injection, schedule: Q01DX001 (ip), vehicle: Klucel (hydroxypropylcellulose) (HPC)) was 99 % of control.

For `CSc1nccc(=O)n1-c1ccccc1F`, the T/C (dose: 25.0 mg/kg/injection, schedule: Q04DX002 (ip), vehicle: Klucel (hydroxypropylcellulose) (HPC)) was 102 % of control, the T/C (dose: 50.0 mg/kg/injection, schedule: Q04DX002 (ip), vehicle: Klucel (hydroxypropylcellulose) (HPC)) was 104 % of control and the T/C [14] was 102 % of control.

`Cc1ccc(S(=O)(=O)N2CCC(N)=N2)cc1` was tested, and the T/C (dose: 50.0 mg/kg/injection, schedule: Q01DX005 (ip), vehicle: Klucel (hydroxypropylcellulose) (HPC)) was 93 % of control, the T/C (dose: 100.0 mg/kg/injection, schedule: Q01DX005 (ip), vehicle: Klucel (hydroxypropylcellulose) (HPC)) was 98 % of control and the T/C (dose: 200.0 mg/kg/injection, schedule: Q01DX005 (ip), vehicle: Klucel (hydroxypropylcellulose) (HPC)) was 90 % of control.

For `CCC(=O)C(=O)NC(C)C(C)=O` (configuration not stated), the T/C [4] was 99 % of control, the T/C [5] was 98 % of control and the T/C [6] was 100 % of control.

`CC(=NCCN=C(C)c1cc(C)ccc1O)c1cc(C)ccc1O` was tested, and the T/C [14] was 101 % of control, the T/C (dose: 200.0 mg/kg/injection, schedule: Q04DX002 (ip), vehicle: Klucel (hydroxypropylcellulose) (HPC)) was 100 % of control and the T/C (dose: 400.0 mg/kg/injection, schedule: Q04DX002 (ip), vehicle: Klucel (hydroxypropylcellulose) (HPC)) was 99 % of control.

For `COc1cc(C(C)=O)cc([N+](=O)[O-])c1O`, the T/C [8] was 100 % of control, the T/C (dose: 100.0 mg/kg/injection, schedule: Q04DX003 (ip), vehicle: saline with Tween-80) was 100 % of control and the T/C (dose: 200.0 mg/kg/injection, schedule: Q04DX003 (ip), vehicle: saline with Tween-80) was 100 % of control.
